Read-outs that look alike come from different tables or passages of the source.
Legend:
human platelet = human platelet aggregation in vitro induced by ADP or adrenaline (CPRP); assay type: cell-based; details: 200 s
Method: Samples of human CPRP (citrated platelet-rich plasma) were incubated at 37°C. for 200 sec. with 1/10 volume of saline containing various amount of the compound to be tested. To the mixture was then added ADP (3μMole) or adrenaline (1 μg/ml). Intensity of primary and secondary aggregation was measured with a platelet aggregation meter (Chrono-Log, Model 300).
Intensity of ADP- or adrenaline-induced aggregation of each sample, which was incubated with the compound, was compared with that of the same sample incubated with saline. The ratio was expressed as a percentage of intensity of aggregation with the compound against one with saline.
The intensity of primary and secondary aggregation of platelets was measured by the procedure described in H. Yamazaki, T. Sano, et al.; title[Platelet Functions in Thromboembolic Disorders] Thrombosis et Diatheses Haemorrhagica "in press" and the references cited therein.

aorta of rabbits = assay: prevention of cholesterol-induced atherosclerosis in rabbits (surface covered by fatty streaks in the aorta); assay type: in vivo, albino rabbits; details: rabbit aorta; oral 1 mg/Kg daily, 15 weeks, diet with 1% cholesterol; placebo 54.6±5.4
Method: Forty healthy albino rabbits of the same age and of the same family were used in the experiment.
After the completion of the regimen, the rabbits were killed and the percentage of the surface covered by fatty streaks was measured in each aorta of the rabbits stained with Sundan IV. The percent of the surface covered by fatty streaks in the aorta of the rabbits was measured by the procedure described in T. Shimamoto, F. Numano, T. Fujita; American Heart Journal, 71, 2216 (1966).

aortic wall of rabbits = assay: regression of preestablished cholesterol-induced atherosclerosis in rabbits (cholesterol content of the aortic wall); assay type: in vivo, albino rabbits; details: oral 1 mg/Kg daily, head prints (μg)
Description: For the regressive test, 50 healthy albino rabbits were fed with a diet containing 1% cholesterol for 15 weeks. Five rabbits were killed at the 15th week of the cholesterol feeding and the remaining 45 rabbits were divided into 3 groups. […] Five each of the rabbits of the 3 groups were killed after 6, 10 and 20 weeks, respectively. The total contents of cholesterol in the aortic wall were estimated by gas chromatography, the results of which are shown in the Table III.
1. The total content of cholesterol in the aortic wall was measured by the procedure described in T. Shimamoto, F. Numano, T. Fujita et al.; Asian med. Journal, 8. 12 (1965) 2. […] 3. The total chloesterol contents indicated in Table III were shown in μg per one mg of the dried aortic wall. The value in the Table is the average figure for 5 rabbits

[1] = test system: cyclic AMP phosphodiesterase; assay: inhibition of cyclic AMP phosphodiesterase, human platelet; assay type: biochemical; details: 50% inhibition of cyclic AMP phosphodiesterase; read-out: I50, Platelet (human)
Method: (§1) The procedure of the experiment was carried out in accordance with the method described in H. Hidaka and M. Shibuya: title "A new assay of cyclic nucleotide phosphodiesterase and its application to humans", Biochemical Medicine, (in press).

[2] = target: cyclic AMP phosphodiesterase; assay: inhibition of cyclic AMP phosphodiesterase, aortic wall intima (rabbit); assay type: biochemical; details: 50% inhibition of cyclic AMP phosphodiesterase; read-out: I50, Aortic Wall, Intima (rabbit)
Method: as §1

[3] = target: cyclic AMP phosphodiesterase; assay: inhibition of cyclic AMP phosphodiesterase, aortic wall media (rabbit); assay type: biochemical; details: 50% inhibition of cyclic AMP phosphodiesterase; read-out: I50, Aortic Wall, Media (rabbit)
Method: as §1

[4] = test system: spontaneously hypertensive rats; assay: hypotensive effect in spontaneously hypertensive rats; assay type: in vivo, rat; details: for Blood Pressure: 50 mg/Kg intraperitoneally
Description: The present compounds have a unique hypotensive effect in spontaneously hypertensive rats. The spontaneously hypertensive rats, abbreviated as SH rats, are produced by selective breeding of spontaneously hypertensive rats and continuous inbreeding with hypertensive mates, and they might be acknowledged as genetically hypertensive. It is believed that SH rats have a striking similarity to human essential hypertension and their reactions can be extrapolated to this morbid condition.
In the blood pressure test, SH rats weighing 210 - 250 g and aged 13-15 weeks were used, and the compounds tested were administered intraperitoneally. Each value in the Table V hows an average figure for three rats.

in vivo = details: mouse, oral, mice
[5] = read-out: Inhibition ratio, primary aggregation, Adrenaline 1μg/ml
[6] = read-out: Inhibition ratio, secondary aggregation, Adrenaline 1μg/ml

CCOC(=O)c1ccc2c(CO)n[nH]c(=O)c2c1 [7-ethoxycarbonyl-4-hydroxymethyl-1-phthalazone]
activity at 5 µg/mL (human platelet; 5 μg/ml, intensity with compound vs saline, read-out: Inhibition ratio, primary aggregation, ADP 3 μM): 90.5 ± 5.6%
activity at 5 µg/mL (human platelet; 5 μg/ml, intensity with compound vs saline, read-out: Inhibition ratio, secondary aggregation, ADP 3 μM): 84.9 ± 6.3%
activity at 10 µg/mL (human platelet; 10 μg/ml, intensity with compound vs saline, read-out: Inhibition ratio, primary aggregation, ADP 3 μM): 81.9 ± 5.2%
activity at 10 µg/mL (human platelet; 10 μg/ml, intensity with compound vs saline, read-out: Inhibition ratio, secondary aggregation, ADP 3 μM): 67.1 ± 6.3%
activity at 20 µg/mL (human platelet; 20 μg/ml, intensity with compound vs saline, read-out: Inhibition ratio, primary aggregation, ADP 3 μM): 77 ± 5.1%
activity at 20 µg/mL (human platelet; 20 μg/ml, intensity with compound vs saline, read-out: Inhibition ratio, secondary aggregation, ADP 3 μM): 58.6 ± 7.6%
activity at 80 µg/mL (human platelet; 80 μg/ml, intensity with compound vs saline, read-out: Inhibition ratio, primary aggregation, ADP 3 μM): 62.9 ± 5%
activity at 80 µg/mL (human platelet; 80 μg/ml, intensity with compound vs saline, read-out: Inhibition ratio, secondary aggregation, ADP 3 μM): 15.7 ± 0.4%
activity at 5 µg/mL (human platelet; [5]): 106 ± 6.9%
activity at 10 µg/mL (human platelet; [5]): 97 ± 4.1%
activity at 20 µg/mL (human platelet; [5]): 92.9 ± 16.9%
activity at 5 µg/mL (human platelet; [6]): 80.8 ± 13.9%
activity at 10 µg/mL (human platelet; [6]): 82.1 ± 9.5%
activity at 20 µg/mL (human platelet; [6]): 71.7 ± 13.5%
activity at 80 µg/mL (human platelet; [6]): 33 ± 7.1%
Percent of surface covered by fatty streaks (aorta of rabbits): 28.8±3.6%
Cholesterol content (aortic wall, total) (aortic wall of rabbits; 6 weeks, placebo 32.1±3.6): 24.6±3.0 μg/mg dry weight
Cholesterol content (aortic wall, total) (aortic wall of rabbits; 10 weeks, placebo 33.8±3.0): 12.2±3.5 μg/mg dry weight
Cholesterol content (aortic wall, total) (aortic wall of rabbits; 20 weeks, placebo 29.5±5.4): 6.4±2.7 μg/mg dry weight
IC50 [1]: 57 µM
IC50 [2]: 52 µM
IC50 [3]: 144 µM
Blood Pressure ([4]; 1 hr): 165
Blood Pressure ([4]; 3 hr): 176
Blood Pressure ([4]; 6 hr): 180
Blood Pressure ([4]; 24 hr): 179
Blood Pressure ([4]; 48 hr): 184
Blood Pressure ([4]; before dosing): 178
hypotensive effect (in words) ([4]; intraperitoneal or oral doses up to 50 mg/Kg): did not exhibit a significant hypotensive effect
LD50 (in vivo): 5000 mg/kg

Source: US3963716A, “Novel 1-phthalazone derivative, a process for its preparation and a pharmaceutical composition containing it” (priority 1973, dated 1976)
